Results published in patent US12435044B2, “Pyridazinone herbicides and pyridazinone intermediates used to prepare a herbicide” (FMC Corporation, priority 2018, dated 2025).

Key:
Type in all cases: in vivo
[1] = system: fall panicum (PANDI; Panicum dichotomiflorum); experiment: Test H postemergence, mixtures of Cpd. No. 20 with atrazine or glyphosate
Summary of the method: (§1)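 Visual injury rating on a 0–100 scale (0 = no effect, 100 = complete control) versus untreated plants, taken about 14 d after postemergence spraying. Seedlings were 2–10 cm tall at one to two leaves, potted in peat/vermiculite mix and greenhouse-held. Values are means of 4 reps.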

[2] = system: palmer amaranth (AMAPA; Amaranthus palmeri); experiment: as above
Summary of the method: as §1

[3] = system: corn (ZEAMD; Zea mays, cv. ‘Pioneer 1184’); experiment: as above
Summary of the method: as §1

[4] = system: large crabgrass (DIGSA; Digitaria sanguinalis); experiment: as above
Summary of the method: as §1

[5] = system: foxtail, green (Setaria viridis); experiment: Test D postemergence controlled growth environment test
Excerpt: (§2) Seeds of plant species selected from blackgrass (Alopecurus myosuroides), galium (catchweed bedstraw, Galium aparine), kochia (Kochia scoparia), oilseed rape (Brassica napus), barley, spring (Hordeum vulgare), wheat, spring (Triticum aestivum), oat, wild (Avena fatua), barley, winter (Hordeum vulgare) and wheat, winter (Triticum aestivum) were planted into a silt loam soil and treated preemergence with test chemicals formulated in a non-phytotoxic solvent mixture which included a surfactant.
(§3) At the same time, plants selected from these crop and weed species and also bluegrass (annual bluegrass, Poa annua), canarygrass (littleseed canarygrass, Phalaris minor), chickweed (common chickweed, Stellaria media), bromegrass, downy (downy bromegrass, Bromus tectorum), field poppy (Papaver rhoeas), field violet (Viola arvensis), foxtail, green (Setaria viridis), deadnettle (henbit deadnettle, Lamium amplexicaule), ryegrass, Italian (Lolium multiflorum), lambsquarters (Chenopodium album), pigweed (Amaranthus retroflexus), chamomile (scentless chamomile, Matricaria inodora), Russian thistle (Salsola kali), speedwell (bird's-eye speedwell, Veronica persica), buckwheat, wild (Polygonum convolvulus), mustard, wild (Sinapis arvensis), radish, wild (Raphanus raphanistrum), windgrass (Apera spica-venti), geranium, cutleaf (Geranium dissectum) and Canada thistle (Cirsium arvense) were planted in pots containing Redi-Earth® planting medium (Scotts Company, 14111 Scottslawn Road, Marysville, Ohio 43041) comprising spaghnum peat moss, vermiculite, wetting agent and starter nutrients and treated with postemergence applications of the test chemicals formulated in the same manner. Plants ranged in height from 2 to 18 cm (1- to 4-leaf stage). Treated plants and controls were maintained in a controlled growth environment for 14 to 21 d after which time all species were compared to controls and visually evaluated. Plant response ratings, summarized in Table D, are based on a scale of 0 to 100 where 0 is no effect and 100 is complete control. A dash (-) response means no test result.

[6] = system: chickweed (common chickweed, Stellaria media); experiment: as above
Excerpt: as §2, §3

[7] = system: speedwell (bird's-eye speedwell, Veronica persica); experiment: as above
Excerpt: as §2, §3

[8] = system: field poppy (Papaver rhoeas); experiment: as above
Excerpt: as §2, §3

[9] = system: Russian thistle (Salsola kali); experiment: as above
Excerpt: as §2, §3

[10] = system: geranium, cutleaf (Geranium dissectum); experiment: as above
Excerpt: as §2, §3

[11] = system: ryegrass, Italian (Lolium multiflorum); experiment: as above
Excerpt: as §2, §3

[12] = system: bluegrass (annual bluegrass, Poa annua); experiment: as above
Excerpt: as §2, §3

[13] = system: radish, wild (Raphanus raphanistrum); experiment: as above
Excerpt: as §2, §3

[14] = system: windgrass (Apera spica-venti); experiment: as above
Excerpt: as §2, §3

[15] = system: deadnettle (henbit deadnettle, Lamium amplexicaule); experiment: as above
Excerpt: as §2, §3

[16] = system: canarygrass (littleseed canarygrass, Phalaris minor); experiment: as above
Excerpt: as §2, §3

Question: Cc1ccc2ccc(C)c(-c3c(O)c(Cl)nn(C)c3=O)c2c1 [Cpd. No. 20, 6-chloro-4-(2,7-dimethyl-1-naphthalenyl)-5-hydroxy-2-methyl-3(2H)-pyridazinone] was tested. Which “Observed result (plant response rating), PANDI” value (shortened to “Observed result … PANDI”) ([1]; applied alone at 31 g a.i./ha) did it give?
Answer: The value was 73.

Question: And the “Observed result … PANDI” value ([1]; applied alone at 62 g a.i./ha)?
Answer: The value was 84.

Question: And the “Observed result … PANDI” value ([1]; applied alone at 125 g a.i./ha)?
Answer: The value was 89.

Question: And the “Observed result (plant response rating), AMAPA” value (shortened to “Observed result … AMAPA”) ([2]; applied alone at 31 g a.i./ha)?
Answer: Its value is 10.

Question: What about the “Observed result … AMAPA” value ([2]; applied alone at 62 g a.i./ha) of the same compound?
Answer: Its value is 36.

Question: What about the “Observed result … AMAPA” value ([2]; applied alone at 125 g a.i./ha) of the same compound?
Answer: The value was 54.

Question: And the “Observed result (plant response rating), ZEAMD” value (shortened to “Observed result … ZEAMD”) ([3]; applied alone at 31 g a.i./ha)?
Answer: Its value is 0.

Question: What about the “Observed result … ZEAMD” value ([3]; applied alone at 62 g a.i./ha) of the same compound?
Answer: Its value is 0.

Question: What about the “Observed result … ZEAMD” value ([3]; applied alone at 125 g a.i./ha) of the same compound?
Answer: The value was 0.

Question: And the “Observed result (plant response rating), DIGSA” value (shortened to “Observed result … DIGSA”) ([4]; applied alone at 31 g a.i./ha)?
Answer: Its value is 34.

Question: And the “Observed result … DIGSA” value ([4]; applied alone at 62 g a.i./ha)?
Answer: Its value is 29.

Question: What about the “Observed result … DIGSA” value ([4]; applied alone at 125 g a.i./ha) of the same compound?
Answer: The value was 36.

Question: What about the “Plant response rating, Foxtail, Green” value ([5]; 16 g ai/ha) of the same compound?
Answer: The value was 85.

Question: And the “Plant response rating, Foxtail, Green” value ([5]; 31 g ai/ha)?
Answer: Its value is 90.

Question: And the “Plant response rating, Foxtail, Green” value ([5]; 62 g ai/ha)?
Answer: The value was 95.

Question: And the “Plant response rating, Foxtail, Green” value ([5]; 125 g ai/ha)?
Answer: The value was 98.

Question: What about the “Plant response rating, Chickweed” value ([6]; 16 g ai/ha) of the same compound?
Answer: The value was 99.

Question: What about the “Plant response rating, Chickweed” value ([6]; 31 g ai/ha) of the same compound?
Answer: Its value is 99.

Question: What about the “Plant response rating, Chickweed” value ([6]; 62 g ai/ha) of the same compound?
Answer: Its value is 100.

Question: What about the “Plant response rating, Chickweed” value ([6]; 125 g ai/ha) of the same compound?
Answer: The value was 100.

Question: What about the “Plant response rating, Speedwell” value ([7]; 16 g ai/ha) of the same compound?
Answer: Its value is 50.

Question: And the “Plant response rating, Speedwell” value ([7]; 31 g ai/ha)?
Answer: Its value is 60.

Question: What about the “Plant response rating, Speedwell” value ([7]; 62 g ai/ha) of the same compound?
Answer: Its value is 80.

Question: What about the “Plant response rating, Speedwell” value ([7]; 125 g ai/ha) of the same compound?
Answer: Its value is 85.

Question: And the “Plant response rating, Field Poppy” value ([8]; 16 g ai/ha)?
Answer: The value was 80.

Question: And the “Plant response rating, Field Poppy” value ([8]; 31 g ai/ha)?
Answer: Its value is 85.

Question: And the “Plant response rating, Field Poppy” value ([8]; 62 g ai/ha)?
Answer: The value was 100.

Question: What about the “Plant response rating, Field Poppy” value ([8]; 125 g ai/ha) of the same compound?
Answer: Its value is 100.

Question: And the “Plant response rating, Russian Thistle” value ([9]; 16 g ai/ha)?
Answer: The value was 80.

Question: And the “Plant response rating, Russian Thistle” value ([9]; 31 g ai/ha)?
Answer: Its value is 75.

Question: What about the “Plant response rating, Russian Thistle” value ([9]; 62 g ai/ha) of the same compound?
Answer: The value was 80.

Question: And the “Plant response rating, Russian Thistle” value ([9]; 125 g ai/ha)?
Answer: The value was 85.

Question: What about the “Plant response rating, Geranium, Cutleaf” value ([10]; 16 g ai/ha) of the same compound?
Answer: The value was 65.

Question: What about the “Plant response rating, Geranium, Cutleaf” value ([10]; 31 g ai/ha) of the same compound?
Answer: Its value is 75.

Question: What about the “Plant response rating, Geranium, Cutleaf” value ([10]; 62 g ai/ha) of the same compound?
Answer: The value was 80.

Question: What about the “Plant response rating, Geranium, Cutleaf” value ([10]; 125 g ai/ha) of the same compound?
Answer: Its value is 85.

Question: What about the “Plant response rating, Ryegrass, Italian” value ([11]; 16 g ai/ha) of the same compound?
Answer: The value was 65.

Question: What about the “Plant response rating, Ryegrass, Italian” value ([11]; 31 g ai/ha) of the same compound?
Answer: Its value is 75.

Question: And the “Plant response rating, Ryegrass, Italian” value ([11]; 62 g ai/ha)?
Answer: Its value is 80.

Question: What about the “Plant response rating, Ryegrass, Italian” value ([11]; 125 g ai/ha) of the same compound?
Answer: The value was 90.

Question: What about the “Plant response rating, Bluegrass” value ([12]; 16 g ai/ha) of the same compound?
Answer: Its value is 0.

Question: And the “Plant response rating, Bluegrass” value ([12]; 31 g ai/ha)?
Answer: The value was 5.

Question: And the “Plant response rating, Bluegrass” value ([12]; 62 g ai/ha)?
Answer: Its value is 5.

Question: What about the “Plant response rating, Bluegrass” value ([12]; 125 g ai/ha) of the same compound?
Answer: The value was 10.

Question: And the “Plant response rating, Radish, Wild” value ([13]; 16 g ai/ha)?
Answer: Its value is 0.

Question: And the “Plant response rating, Radish, Wild” value ([13]; 31 g ai/ha)?
Answer: The value was 0.

Question: And the “Plant response rating, Radish, Wild” value ([13]; 62 g ai/ha)?
Answer: The value was 15.

Question: And the “Plant response rating, Radish, Wild” value ([13]; 125 g ai/ha)?
Answer: The value was 25.

Question: And the “Plant response rating, Windgrass” value ([14]; 16 g ai/ha)?
Answer: The value was 15.

Question: And the “Plant response rating, Windgrass” value ([14]; 31 g ai/ha)?
Answer: The value was 25.

Question: And the “Plant response rating, Windgrass” value ([14]; 62 g ai/ha)?
Answer: Its value is 50.

Question: What about the “Plant response rating, Windgrass” value ([14]; 125 g ai/ha) of the same compound?
Answer: The value was 75.

Question: What about the “Plant response rating, Deadnettle” value ([15]; 16 g ai/ha) of the same compound?
Answer: The value was 35.

Question: And the “Plant response rating, Deadnettle” value ([15]; 31 g ai/ha)?
Answer: Its value is 80.

Question: And the “Plant response rating, Deadnettle” value ([15]; 62 g ai/ha)?
Answer: Its value is 85.

Question: What about the “Plant response rating, Deadnettle” value ([15]; 125 g ai/ha) of the same compound?
Answer: The value was 95.

Question: And the “Plant response rating, Canarygrass” value ([16]; 16 g ai/ha)?
Answer: Its value is 10.

Question: And the “Plant response rating, Canarygrass” value ([16]; 31 g ai/ha)?
Answer: Its value is 15.

Question: And the “Plant response rating, Canarygrass” value ([16]; 62 g ai/ha)?
Answer: Its value is 20.

Question: What about the “Plant response rating, Canarygrass” value ([16]; 125 g ai/ha) of the same compound?
Answer: The value was 35.
